Source: ChEMBL document CHEMBL1909046, “DrugMatrix in vitro pharmacology data”

Assays:
[1] = target: Sodium-dependent noradrenaline transporter (Homo sapiens, UniProt P23975); experiment: DRUGMATRIX: Norepinephrine Transporter radioligand binding (ligand: [125I] RTI-55); assay type: cell membranes, MDCK, Membrane; details: mdck; Not Active = under 50% inhibition at 10 µM
[2] = target: 5-hydroxytryptamine receptor 2B (Homo sapiens, UniProt P41595); assay type: cell membranes, CHO-K1, Membrane; details: cho-k1; further: in other assays of this panel Not Active means under 50% inhibition at 10 µM
Chain of 5-hydroxytryptamine receptor 2B (P41595 whole entry): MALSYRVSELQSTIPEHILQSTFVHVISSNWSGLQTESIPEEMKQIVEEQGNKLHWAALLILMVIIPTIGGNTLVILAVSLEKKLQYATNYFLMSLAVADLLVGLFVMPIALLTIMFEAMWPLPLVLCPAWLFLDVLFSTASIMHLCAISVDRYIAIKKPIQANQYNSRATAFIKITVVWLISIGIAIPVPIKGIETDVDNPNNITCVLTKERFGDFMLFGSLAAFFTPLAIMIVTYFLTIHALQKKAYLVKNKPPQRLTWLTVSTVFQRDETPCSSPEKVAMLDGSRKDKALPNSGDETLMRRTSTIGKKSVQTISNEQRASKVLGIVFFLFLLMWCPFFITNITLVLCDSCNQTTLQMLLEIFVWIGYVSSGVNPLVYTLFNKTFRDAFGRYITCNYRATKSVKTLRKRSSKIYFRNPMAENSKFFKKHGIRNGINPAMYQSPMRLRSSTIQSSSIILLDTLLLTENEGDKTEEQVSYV

[3] = DRUGMATRIX: GABAA, Flunitrazepam, Central radioligand binding (ligand: [3H] Flunitrazepam); assay type: cell membranes, Rattus norvegicus, Wistar, Brain, Membrane; details: Not Active = under 50% inhibition at 10 µM
[4] = DRUGMATRIX: Glutamate, NMDA, Agonism radioligand binding (ligand: [3H] CGP-39653); assay type: cell membranes, Rattus norvegicus, Wistar, Cerebral cortex, Membrane; details: Not Active = under 50% inhibition at 10 µM
[5] = target: T1, Muscarinic acetylcholine receptor M5 (Homo sapiens, UniProt P08912); assay type: cell membranes, CHO-K1, Membrane; details: cho-k1; further: in other assays of this panel Not Active means under 50% inhibition at 10 µM
T1 sequence (P08912 whole entry): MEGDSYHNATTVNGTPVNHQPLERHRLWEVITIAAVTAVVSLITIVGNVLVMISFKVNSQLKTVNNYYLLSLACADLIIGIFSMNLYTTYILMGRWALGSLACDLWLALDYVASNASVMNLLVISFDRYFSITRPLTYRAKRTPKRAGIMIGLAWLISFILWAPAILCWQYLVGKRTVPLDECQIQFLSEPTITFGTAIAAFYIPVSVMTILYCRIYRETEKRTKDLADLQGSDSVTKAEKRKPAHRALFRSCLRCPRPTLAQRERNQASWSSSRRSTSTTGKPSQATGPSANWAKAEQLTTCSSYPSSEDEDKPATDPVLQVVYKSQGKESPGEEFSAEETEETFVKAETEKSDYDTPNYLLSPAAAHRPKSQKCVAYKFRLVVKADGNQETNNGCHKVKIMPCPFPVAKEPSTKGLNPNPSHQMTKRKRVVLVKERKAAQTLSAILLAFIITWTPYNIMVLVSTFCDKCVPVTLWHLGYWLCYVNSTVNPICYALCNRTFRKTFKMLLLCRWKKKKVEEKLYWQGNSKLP

[6] = target: Nitric oxide synthase 1 (Rattus norvegicus, UniProt P29476); assay type: tissue-based, Cerebellum; further: in other assays of this panel Not Active means under 50% inhibition at 10 µM
[7] = DRUGMATRIX: Potassium Channel [KATP] radioligand binding (ligand: [3H] Glyburide); assay type: cell membranes, Membrane; details: hit-t15; Not Active = under 50% inhibition at 10 µM
[8] = target: Cytochrome P450 2C19 (Homo sapiens, UniProt P33261); details: bti-tn-5b1-4; further: in other assays of this panel Not Active means under 50% inhibition at 10 µM
Chain of Cytochrome P450 2C19 (P33261 whole entry): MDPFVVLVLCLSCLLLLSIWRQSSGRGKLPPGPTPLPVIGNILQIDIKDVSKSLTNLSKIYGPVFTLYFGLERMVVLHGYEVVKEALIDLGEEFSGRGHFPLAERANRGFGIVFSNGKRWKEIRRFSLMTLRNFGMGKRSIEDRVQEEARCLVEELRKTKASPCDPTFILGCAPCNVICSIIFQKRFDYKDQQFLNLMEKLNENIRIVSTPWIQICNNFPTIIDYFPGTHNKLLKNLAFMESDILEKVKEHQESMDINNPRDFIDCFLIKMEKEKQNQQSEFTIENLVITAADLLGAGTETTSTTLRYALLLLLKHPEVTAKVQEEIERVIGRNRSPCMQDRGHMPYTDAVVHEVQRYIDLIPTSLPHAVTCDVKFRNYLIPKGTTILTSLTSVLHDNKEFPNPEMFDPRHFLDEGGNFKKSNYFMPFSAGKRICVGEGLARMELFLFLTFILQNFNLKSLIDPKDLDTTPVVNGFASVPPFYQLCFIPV

[9] = target: Cytochrome P450 2D6 (Homo sapiens, UniProt P10635); details: bti-tn-5b1-4; further: in other assays of this panel Not Active means under 50% inhibition at 10 µM
Chain of Cytochrome P450 2D6 (P10635 whole entry): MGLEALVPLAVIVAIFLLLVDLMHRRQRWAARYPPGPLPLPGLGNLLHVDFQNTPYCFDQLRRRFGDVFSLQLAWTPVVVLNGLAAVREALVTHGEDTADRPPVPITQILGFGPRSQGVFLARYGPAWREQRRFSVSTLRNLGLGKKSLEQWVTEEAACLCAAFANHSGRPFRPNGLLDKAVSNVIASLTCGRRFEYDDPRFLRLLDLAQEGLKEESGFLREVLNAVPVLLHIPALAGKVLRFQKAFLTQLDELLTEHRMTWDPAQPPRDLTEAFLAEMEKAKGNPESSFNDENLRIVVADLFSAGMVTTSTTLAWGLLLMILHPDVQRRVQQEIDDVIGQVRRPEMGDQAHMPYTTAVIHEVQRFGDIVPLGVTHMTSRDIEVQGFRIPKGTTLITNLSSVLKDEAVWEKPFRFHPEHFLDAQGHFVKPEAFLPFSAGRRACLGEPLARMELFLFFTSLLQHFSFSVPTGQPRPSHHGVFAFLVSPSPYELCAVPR

[10] = target: Cytochrome P450 3A4 (Homo sapiens, UniProt P08684); details: bti-tn-5b1-4; further: in other assays of this panel Not Active means under 50% inhibition at 10 µM
Chain of Cytochrome P450 3A4 (P08684 whole entry): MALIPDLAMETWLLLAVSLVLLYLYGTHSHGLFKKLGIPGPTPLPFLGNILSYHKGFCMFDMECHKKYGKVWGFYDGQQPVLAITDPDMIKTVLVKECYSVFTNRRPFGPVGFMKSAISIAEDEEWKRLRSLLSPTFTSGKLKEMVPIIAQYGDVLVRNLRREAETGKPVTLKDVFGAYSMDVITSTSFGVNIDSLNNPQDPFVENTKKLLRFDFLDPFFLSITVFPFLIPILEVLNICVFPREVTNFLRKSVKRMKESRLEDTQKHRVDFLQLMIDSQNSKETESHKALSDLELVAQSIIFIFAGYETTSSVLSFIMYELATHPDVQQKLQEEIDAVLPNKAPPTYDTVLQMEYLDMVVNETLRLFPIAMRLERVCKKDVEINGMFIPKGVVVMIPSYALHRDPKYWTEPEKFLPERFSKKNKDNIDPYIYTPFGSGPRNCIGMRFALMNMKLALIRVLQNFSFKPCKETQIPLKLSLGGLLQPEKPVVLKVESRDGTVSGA

[11] = target: T2, Estrogen receptor (Homo sapiens, UniProt P03372); details: sf9; further: in other assays of this panel Not Active means under 50% inhibition at 10 µM
T2 sequence (P03372 whole entry): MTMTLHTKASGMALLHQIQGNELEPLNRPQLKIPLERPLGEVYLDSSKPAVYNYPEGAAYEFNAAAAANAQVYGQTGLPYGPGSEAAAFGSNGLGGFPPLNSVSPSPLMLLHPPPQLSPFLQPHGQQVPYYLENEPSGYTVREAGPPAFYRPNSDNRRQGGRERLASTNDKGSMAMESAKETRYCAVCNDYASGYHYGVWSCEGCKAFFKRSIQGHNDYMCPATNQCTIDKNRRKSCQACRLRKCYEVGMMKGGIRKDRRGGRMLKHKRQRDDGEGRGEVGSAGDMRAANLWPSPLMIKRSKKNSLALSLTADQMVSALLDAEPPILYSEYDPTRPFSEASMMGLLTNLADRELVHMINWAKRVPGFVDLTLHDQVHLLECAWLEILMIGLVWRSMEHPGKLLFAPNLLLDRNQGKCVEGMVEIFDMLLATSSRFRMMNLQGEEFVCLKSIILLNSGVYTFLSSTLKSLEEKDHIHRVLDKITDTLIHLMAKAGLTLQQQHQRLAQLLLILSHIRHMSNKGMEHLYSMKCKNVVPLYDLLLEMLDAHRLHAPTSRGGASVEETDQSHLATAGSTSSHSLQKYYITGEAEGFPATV

[12] = target: Estrogen receptor beta (Homo sapiens, UniProt Q92731); details: sf9; further: in other assays of this panel Not Active means under 50% inhibition at 10 µM
Chain of Estrogen receptor beta (Q92731 whole entry): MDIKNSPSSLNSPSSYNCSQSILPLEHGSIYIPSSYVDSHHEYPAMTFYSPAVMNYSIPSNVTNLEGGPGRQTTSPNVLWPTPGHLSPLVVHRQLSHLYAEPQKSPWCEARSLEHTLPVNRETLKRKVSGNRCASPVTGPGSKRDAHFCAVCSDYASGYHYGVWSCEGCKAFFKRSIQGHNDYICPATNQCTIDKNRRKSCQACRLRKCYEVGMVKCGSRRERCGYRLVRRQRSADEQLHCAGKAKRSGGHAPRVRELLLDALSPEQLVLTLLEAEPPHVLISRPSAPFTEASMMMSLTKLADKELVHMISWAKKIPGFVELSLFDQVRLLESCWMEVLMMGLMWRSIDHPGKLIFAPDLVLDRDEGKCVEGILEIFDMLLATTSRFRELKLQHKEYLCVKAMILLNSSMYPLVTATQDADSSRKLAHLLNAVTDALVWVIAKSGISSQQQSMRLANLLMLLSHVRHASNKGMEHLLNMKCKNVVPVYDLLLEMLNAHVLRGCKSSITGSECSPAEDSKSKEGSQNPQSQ

[13] = target: T3, Glucocorticoid receptor (Homo sapiens, UniProt P04150); details: hela s3; further: in other assays of this panel Not Active means under 50% inhibition at 10 µM
T3 sequence (P04150 whole entry): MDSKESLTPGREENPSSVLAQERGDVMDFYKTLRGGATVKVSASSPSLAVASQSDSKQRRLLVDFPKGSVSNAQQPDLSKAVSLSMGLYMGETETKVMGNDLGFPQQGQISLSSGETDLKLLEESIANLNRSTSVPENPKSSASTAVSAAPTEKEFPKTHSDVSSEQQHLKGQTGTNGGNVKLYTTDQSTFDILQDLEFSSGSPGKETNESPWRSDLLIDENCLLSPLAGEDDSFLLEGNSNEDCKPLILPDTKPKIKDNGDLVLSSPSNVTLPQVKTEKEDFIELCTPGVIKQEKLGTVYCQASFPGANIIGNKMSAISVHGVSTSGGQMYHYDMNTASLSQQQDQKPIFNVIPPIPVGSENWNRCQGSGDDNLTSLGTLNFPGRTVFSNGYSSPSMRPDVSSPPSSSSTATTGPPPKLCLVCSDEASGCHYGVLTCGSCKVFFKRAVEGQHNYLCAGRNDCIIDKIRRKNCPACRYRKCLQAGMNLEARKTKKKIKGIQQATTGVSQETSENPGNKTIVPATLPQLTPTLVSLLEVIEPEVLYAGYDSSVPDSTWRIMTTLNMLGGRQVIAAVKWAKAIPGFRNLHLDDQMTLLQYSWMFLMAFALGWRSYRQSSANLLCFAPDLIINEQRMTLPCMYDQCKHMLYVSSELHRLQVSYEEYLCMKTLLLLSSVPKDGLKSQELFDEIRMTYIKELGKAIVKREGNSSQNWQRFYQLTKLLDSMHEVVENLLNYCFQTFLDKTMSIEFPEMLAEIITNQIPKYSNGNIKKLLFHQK

[14] = target: Voltage-gated inwardly rectifying potassium channel KCNH2 (Homo sapiens, UniProt Q12809); details: hek293; further: in other assays of this panel Not Active means under 50% inhibition at 10 µM
Chain of Voltage-gated inwardly rectifying potassium channel KCNH2 (Q12809 whole entry): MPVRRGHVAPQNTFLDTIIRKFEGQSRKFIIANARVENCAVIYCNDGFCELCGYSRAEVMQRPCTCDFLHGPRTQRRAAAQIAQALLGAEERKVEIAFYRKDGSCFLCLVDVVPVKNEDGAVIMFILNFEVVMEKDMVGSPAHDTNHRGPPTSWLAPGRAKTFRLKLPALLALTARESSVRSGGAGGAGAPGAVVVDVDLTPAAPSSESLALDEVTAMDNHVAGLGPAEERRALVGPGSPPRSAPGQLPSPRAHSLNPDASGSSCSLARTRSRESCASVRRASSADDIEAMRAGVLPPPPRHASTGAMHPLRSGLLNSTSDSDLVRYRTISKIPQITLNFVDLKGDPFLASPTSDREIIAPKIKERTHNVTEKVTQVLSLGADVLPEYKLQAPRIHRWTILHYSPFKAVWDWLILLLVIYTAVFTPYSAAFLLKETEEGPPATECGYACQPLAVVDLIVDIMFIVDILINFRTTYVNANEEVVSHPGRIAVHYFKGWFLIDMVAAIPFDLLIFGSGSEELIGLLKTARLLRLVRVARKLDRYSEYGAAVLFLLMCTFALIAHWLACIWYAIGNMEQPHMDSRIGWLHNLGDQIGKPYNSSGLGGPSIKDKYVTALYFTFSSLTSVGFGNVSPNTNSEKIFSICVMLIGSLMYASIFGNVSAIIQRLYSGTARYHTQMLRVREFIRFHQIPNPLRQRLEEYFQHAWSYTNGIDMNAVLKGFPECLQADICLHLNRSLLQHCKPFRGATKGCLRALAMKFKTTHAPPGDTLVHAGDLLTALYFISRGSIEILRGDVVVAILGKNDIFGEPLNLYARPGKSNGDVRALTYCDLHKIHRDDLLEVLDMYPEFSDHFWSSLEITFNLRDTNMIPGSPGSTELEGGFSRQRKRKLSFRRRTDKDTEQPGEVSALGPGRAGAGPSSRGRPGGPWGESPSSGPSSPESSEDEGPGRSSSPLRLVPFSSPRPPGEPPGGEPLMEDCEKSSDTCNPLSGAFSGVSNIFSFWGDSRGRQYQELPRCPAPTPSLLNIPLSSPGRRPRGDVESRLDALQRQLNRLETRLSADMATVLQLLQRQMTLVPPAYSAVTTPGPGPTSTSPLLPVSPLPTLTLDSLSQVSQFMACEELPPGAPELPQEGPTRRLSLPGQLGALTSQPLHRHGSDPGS

Chain of Sodium-dependent noradrenaline transporter (P23975 whole entry): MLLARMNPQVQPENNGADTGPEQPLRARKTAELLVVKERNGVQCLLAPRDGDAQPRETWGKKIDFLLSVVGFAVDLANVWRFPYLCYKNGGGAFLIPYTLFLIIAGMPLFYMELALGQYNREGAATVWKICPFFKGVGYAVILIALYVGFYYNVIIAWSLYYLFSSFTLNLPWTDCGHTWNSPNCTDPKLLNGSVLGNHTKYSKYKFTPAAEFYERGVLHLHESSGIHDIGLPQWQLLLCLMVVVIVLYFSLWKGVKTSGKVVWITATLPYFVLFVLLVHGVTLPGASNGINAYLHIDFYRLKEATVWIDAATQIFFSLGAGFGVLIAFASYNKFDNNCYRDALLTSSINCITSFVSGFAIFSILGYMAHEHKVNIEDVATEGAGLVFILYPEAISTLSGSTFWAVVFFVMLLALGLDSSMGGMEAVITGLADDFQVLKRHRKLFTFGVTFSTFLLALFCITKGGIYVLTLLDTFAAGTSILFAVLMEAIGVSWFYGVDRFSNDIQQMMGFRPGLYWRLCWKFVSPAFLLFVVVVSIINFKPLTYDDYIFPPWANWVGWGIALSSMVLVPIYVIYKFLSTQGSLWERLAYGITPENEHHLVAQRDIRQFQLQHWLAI

CCC[C@@H]1C[C@@H](C(=O)N[C@@H]([C@H]2O[C@H](SC)[C@H](O)[C@@H](O)[C@H]2O)[C@@H](C)O)N(C)C1 [LINCOMYCIN]
Not Active: IC50 [1] | IC50 [2] | IC50 [3] | Ki [3] | IC50 [4] | Ki [4] | IC50 [5] | IC50 [6] | IC50 [7] | Ki [7] | IC50 [8] | Ki [8] | IC50 [9] | Ki [9] | IC50 [10] | Ki [10] | IC50 [11] | IC50 [12] | IC50 [13] | IC50 [14] | Ki [14]

COc1c(C)c2c(c(O)c1C/C=C(\C)CCC(=O)OCCN1CCOCC1)C(=O)OC2 [MYCOPHENOLATE MOFETIL]
Not Active: IC50 [1] | IC50 [2] | IC50 [3] | Ki [3] | IC50 [4] | Ki [4] | IC50 [5] | IC50 [6] | IC50 [7] | Ki [7] | IC50 [8] | Ki [8] | IC50 [9] | Ki [9] | IC50 [10] | Ki [10] | IC50 [11] | IC50 [12] | IC50 [13] | IC50 [14] | Ki [14]

O=[N+]([O-])c1cc([As](=O)(O)O)ccc1O [ROXARSONE]
Not Active: IC50 [1] | Ki [1] | IC50 [2] | Ki [2] | IC50 [3] | Ki [3] | IC50 [4] | Ki [4] | IC50 [5] | Ki [5] | IC50 [6] | Ki [6] | IC50 [7] | Ki [7] | IC50 [8] | Ki [8] | IC50 [9] | Ki [9] | IC50 [10] | Ki [10] | IC50 [11] | Ki [11] | IC50 [12] | Ki [12] | IC50 [13] | Ki [13] | IC50 [14] | Ki [14]

NC(=O)c1ccccc1O [SALICYLAMIDE]
Not Active: IC50 [1] | IC50 [2] | IC50 [3] | Ki [3] | IC50 [4] | Ki [4] | IC50 [5] | IC50 [6] | IC50 [7] | Ki [7] | IC50 [8] | Ki [8] | IC50 [9] | Ki [9] | IC50 [10] | Ki [10] | IC50 [11] | IC50 [12] | IC50 [13] | IC50 [14] | Ki [14]

Cc1ncc([N+](=O)[O-])n1CC(C)O (centres undefined) [SECNIDAZOLE]
Not Active: IC50 [1] | IC50 [2] | IC50 [3] | Ki [3] | IC50 [4] | Ki [4] | IC50 [5] | IC50 [6] | IC50 [7] | Ki [7] | IC50 [8] | Ki [8] | IC50 [9] | Ki [9] | IC50 [10] | Ki [10] | IC50 [11] | IC50 [12] | IC50 [13] | IC50 [14] | Ki [14]

CN(N=O)C(=O)N[C@@H](C=O)[C@@H](O)[C@H](O)[C@H](O)CO [STREPTOZOCIN]
Not Active: IC50 [1] | IC50 [2] | IC50 [3] | Ki [3] | IC50 [4] | Ki [4] | IC50 [5] | IC50 [6] | IC50 [7] | Ki [7] | IC50 [8] | Ki [8] | IC50 [9] | Ki [9] | IC50 [10] | Ki [10] | IC50 [11] | IC50 [12] | IC50 [13] | IC50 [14] | Ki [14]

Nc1ccc(S(=O)(=O)Nc2ccnn2-c2ccccc2)cc1 [SULFAPHENAZOLE]
Not Active: IC50 [1] | IC50 [2] | IC50 [3] | Ki [3] | IC50 [4] | Ki [4] | IC50 [5] | IC50 [6] | IC50 [7] | Ki [7] | IC50 [8] | Ki [8] | IC50 [9] | Ki [9] | IC50 [10] | Ki [10] | IC50 [11] | IC50 [12] | IC50 [13] | IC50 [14] | Ki [14]
